# Assay results as given in PMC8776995 (Frontiers in Chemistry, 2022).
# Values joined by “and” are separate entries in the source; they are usually repeats but may differ in a detail not shown here. Equal entries are not always repeated.
# How the values were obtained:
# [1] = system: CCND1, CCNA2, CCNB1, CDK2, CDK6 RNA in PC-9 cells; experiment: qPCR assay for cell cycle-related gene analysis; type: cell-based, human; details: for RQ / RQ, CCNA / RQ, CCNB / RQ, CCND1 / RQ, CDK6 / RQ (CDK2): endogenous control b-Actin, reference sample NC; for CDK6 relative mRNA expression (fold of NC): normalised to beta-Actin, relative to NC = 1
# From the text: To better understand the mechanisms underlying cell cycle arrest induced by e4 and e12 in NSCLC cells, we assessed the expression levels of a few genes involved in cell cycle regulation, including cyclin D1 (CCND1), cyclin A2 (CCNA2), cyclin B1 (CCNB1), cyclin-dependent kinase 2 (CDK2), and cyclin-dependent kinase 6 (CDK6) in PC-9 by qPCR. […] CCNA2 is known to bind and activate CDK2 and thus promotes the transition through G1/S and G2/M. CCNB1 and CCND1 are essential to mitosis and G1/S transition respectively. While G2/M arrest weas not detected, the changes in these gene expression profiles interpret the G1/S arrests in PC-9 cells treated with e4 and e12. PC-9 cells exposed to the compounds for various periods should be examined further.
# Total RNA of cells was extracted and cDNA was synthesized. The primers for the target products were designed as in Table 3.
# [2] = system: PC-9 cells; experiment: CCK-8 antiproliferation assay, PC-9; details: for Inhibitory efficacy: single repeats (Repeat 1-3), given as fraction
# [3] = PC-9, 16 h, compared with DMSO control
structure (smiles),measurement,setting,value
"COCCOc1cc2ncnc(Nc3cccc(-c4cn(Cc5cc(Br)cc(Br)c5)nn4)c3)c2cc1OCCOC [e4, [6,7-Bis-(2-methoxy-ethoxy)-quinazolin-4-yl]-{3-[1-(3,5-dibromo-benzyl)-1H-[1,2,3]triazol-4-yl]-phenyl}-amine]",2^ΔΔCт CDK2,"[1]; CDK2, 8uM, Repeat 1-3, relative to NC = 1",1.1688 and 1.551 and 1.159
same,2^ΔΔCт CDK2,"[1]; CDK2, 12uM, Repeat 1-3, relative to NC = 1",0.9257 and 1.095 and 1.173
same,RQ,"[1]; CDK2 mRNA, 4uM",1.028
same,RQ,"[1]; CDK2 mRNA, 8uM",1.159
same,RQ,"[1]; CDK2 mRNA, 12uM",1.173
same,2^ΔΔCт CDK6,"[1]; CDK6, 4uM, Repeat 1-3, relative to NC = 1",0.8111 and 1.387 and 0.8685
same,2^ΔΔCт CDK6,"[1]; CDK6, 12uM, Repeat 1-3, relative to NC = 1",1.051 and 1.348 and 1.109
same,RQ,"[1]; CDK6 mRNA, 4uM",0.8685
same,RQ,"[1]; CDK6 mRNA, 8uM",0.637
same,RQ,"[1]; CDK6 mRNA, 12uM",1.109
same,RNA expression of CCND1,"[1]; PC-9, 12 μM, 16 h",negatively regulated
same,RNA level of CCNA2,[1]; [3],significantly decreased
same,RNA level of CCNB1,[1]; [3],significantly decreased
same,"RQ, CCNA","[1]; qPCR SYBR Green, CCNA mRNA, 4uM",0.8165
same,"RQ, CCNA","[1]; qPCR SYBR Green, CCNA mRNA, 8uM",0.778
same,"RQ, CCNA","[1]; qPCR SYBR Green, CCNA mRNA, 12uM",0.5446
same,"RQ, CCNB","[1]; qPCR SYBR Green, CCNB mRNA, 4uM",1.076
same,"RQ, CCNB","[1]; qPCR SYBR Green, CCNB mRNA, 8uM",1.137
same,"RQ, CCNB","[1]; qPCR SYBR Green, CCNB mRNA, 12uM",0.9859
same,"RQ, CCND1","[1]; qPCR SYBR Green, CCND1 mRNA, 4uM",1.076
same,"RQ, CCND1","[1]; qPCR SYBR Green, CCND1 mRNA, 8uM",0.7718
same,"RQ, CCND1","[1]; qPCR SYBR Green, CCND1 mRNA, 12uM",0.7441
same,"RQ, CDK6","[1]; qPCR SYBR Green, CDK6 mRNA, 4uM",1.387
same,"RQ, CDK6","[1]; qPCR SYBR Green, CDK6 mRNA, 8uM",1.7457
same,"RQ, CDK6","[1]; qPCR SYBR Green, CDK6 mRNA, 12uM",1.348
same,"CDK6 relative mRNA expression (fold of NC, normalised to beta-Actin)","[1]; qPCR, SYBR Green, 8uM",1.746
same,CDK6 relative mRNA expression (fold of NC),"[1]; qPCR, SYBR Green, 8uM",0.9943
same,CDK6 relative mRNA expression (fold of NC),"[1]; qPCR, SYBR Green, 12uM",1.109
same,2^ΔΔCт CDK6,"[1]; recalculated summary 20201020-1, normalized to WT (NC), CDK6, 4uM",1.387
same,2^ΔΔCт CDK6,"[1]; recalculated summary 20201020-1, normalized to WT (NC), CDK6, 8uM",1.746
same,"RQ, CCNA","[1]; target CCNA, 4uM",0.7613
same,"RQ, CCNA","[1]; target CCNA, 8uM",0.7109
same,"RQ, CCNA","[1]; target CCNA, 12uM",0.5857
same,"RQ, CCNB","[1]; target CCNB, 4uM",0.8081
same,"RQ, CCNB","[1]; target CCNB, 8uM",0.7848
same,"RQ, CCNB","[1]; target CCNB, 12uM",0.736
same,"RQ, CCND1","[1]; target CCND1, 4uM",0.8337
same,"RQ, CCND1","[1]; target CCND1, 8uM",0.7172
same,"RQ, CCND1","[1]; target CCND1, 12uM",0.6074
same,RQ (CDK2),"[1]; target CDK2, 8uM",1.1688
same,RQ (CDK2),"[1]; target CDK2, 12uM",0.9257
same,"RQ, CDK6","[1]; target CDK6, 4uM",0.8111
same,"RQ, CDK6","[1]; target CDK6, 8uM",0.824
same,"RQ, CDK6","[1]; target CDK6, 12uM",1.051
same,IC50,"[2]; Homo sapiens, PC-9, 48 h, read-out: IC50 (μM) PC-9",4.38 ± 0.12 µM
same,inhibition at 1 µM,"[2]; Homo sapiens, PC-9, read-out: Inhibitory efficacy, PC-9, 1uM, single repeats (Repeat 1-3), given as fraction",4.24%
same,inhibition at 2 µM,"[2]; Homo sapiens, PC-9, read-out: Inhibitory efficacy, PC-9, 2uM, single repeats (Repeat 1-3), given as fraction",12.8%
same,inhibition at 4 µM,"[2]; Homo sapiens, PC-9, read-out: Inhibitory efficacy, PC-9, 4uM, single repeats (Repeat 1-3), given as fraction",40%
same,inhibition at 8 µM,"[2]; Homo sapiens, PC-9, read-out: Inhibitory efficacy, PC-9, 8uM, single repeats (Repeat 1-3), given as fraction",88.1%
same,inhibition at 16 µM,"[2]; Homo sapiens, PC-9, read-out: Inhibitory efficacy, PC-9, 16uM, single repeats (Repeat 1-3), given as fraction",85.7%
same,Inhibitory efficacy,"[2]; PC-9, 1uM, 1 µM",0.05688 and 0.04243
same,Inhibitory efficacy,"[2]; PC-9, 2uM, 2 µM",0.1851 and 0.2067
same,Inhibitory efficacy,"[2]; PC-9, 4uM, 4 µM",0.4288 and 0.3873
same,Inhibitory efficacy,"[2]; PC-9, 8uM, 8 µM",0.8667 and 0.8549
same,Inhibitory efficacy,"[2]; PC-9, 16uM, 16 µM",0.8604 and 0.8477
